These results are taken from the RepoRT retention time repository (doi:10.1007/s11356-017-9929-x).

The series in a line: RP, GL Sciences Inertsil ODS-4, 150 × 2.1 mm, 3 µm, 40 °C, 0.3 mL/min, estimated dead time 1.1 min; A: water + 5 mM ammonium acetate; B: methanol + 5 mM ammonium acetate; gradient (min/%B) 0/5 30/95 50/95. The settings on record: stereoisomer not certain.

Consider `[2H]C([2H])([2H])NC(=O)Oc1cccc2c1OC(C)(C)C2`, for which the LC retention time is 20.5 min. For `OCCN(CCO)c1nc(N2CCCCC2)c2nc(N(CCO)CCO)nc(N3CCCCC3)c2n1` the value was 28.4 min. As for `COc1cc(C)c(Cc2cnc(N)nc2N)cc1OC`, the LC retention time is 17.6 min. For `CCCC1CC(C(=O)NC(C(C)O)C2OC(SC)C(O)C(O)C2O)N(C)C1` (configuration not stated) the value was 21 min; for `CCCCNC(=O)NS(=O)(=O)c1ccc(C)cc1`, 19.6 min; for `CCS(=O)(=O)c1nc2ccccn2c1S(=O)(=O)NC(=O)Nc1nc(OC)cc(OC)n1`, 16.3 min. The result for `CC12CCC(=O)C=C1CCC1C2CCC2(C)C(O)CCC12` (configuration not stated) reads 26.6 min; that for `COC=C(C(=O)OC)c1ccccc1Oc1cc(Oc2ccccc2C#N)ncn1`, 26.1 min. For `CC(C)NCC(O)c1ccc(NS(C)(=O)=O)cc1` (configuration not stated) the value was 9.08 min; for `COc1cc(C)nc(-n2nc(C)cc2OC)n1`, 21.3 min; for `CC(C)C1(C)N=C(c2nc3ccccc3cc2C(=O)O)NC1=O` (configuration not stated), 14.7 min. Take `CCC1CCCC(OC2CCC(N(C)C)C(C)O2)C(C)C(=O)C2=CC3C(C=CC4CC(OC5OC(C)C(OC)C(OC)C5OC)CC43)C2CC(=O)O1` (configuration not stated): the LC retention time is 34.5 min. As for `COC(=O)c1sccc1S(=O)(=O)NC(=O)Nc1nc(C)nc(OC)n1`, the LC retention time was 13.9 min. On to `CCOC(=O)CCN(SN(C)C(=O)Oc1cccc2c1OC(C)(C)C2)C(C)C`, for which the LC retention time is 31.1 min.

On to `Nc1ccc(S(=O)(=O)Nc2ncccn2)cc1`, for which the LC retention time was 8.05 min. The result for `CN1CCN(CC(=O)N2c3ccccc3C(=O)Nc3cccnc32)CC1` reads 15.8 min. In the case of `CCC1OC(=O)C(C)C(OC2CC(C)(OC)C(O)C(C)O2)C(C)C(OC2OC(C)CC(N(C)C)C2O)C(C)(O)CC(C)C(=O)C(C)C(O)C1(C)O` (configuration not stated), the LC retention time was 25.5 min.

Take `CN(C)CCC=C1c2ccccc2CCc2ccccc21`: the LC retention time was 28.1 min. The result for `NC1=NCC2c3ccccc3Cc3ccccc3N12` (configuration not stated) reads 20.1 min.

`COCCc1ccc(OCC(O)CNC(C)C)cc1` (configuration not stated): the LC retention time is 17.8 min. For the compound `COc1ccc(CCN(C)CCCC(C#N)(c2ccc(OC)c(OC)c2)C(C)C)cc1OC` (configuration not stated), the LC retention time was 26.7 min. Consider `CC#Cc1cc(C)nc(Nc2ccccc2)n1`, for which the LC retention time was 28.1 min. For `CC(C(O)c1ccc(O)cc1)N1CCC(Cc2ccccc2)CC1` (configuration not stated) the value was 21 min; for `COP(=S)(OC)Oc1ccc(S(C)=O)c(C)c1` (configuration not stated), 22.2 min; for `CC(=O)CCCCn1c(=O)c2c(ncn2C)n(C)c1=O`, 17.4 min. For `[2H]C([2H])([2H])N=C(NC#N)NCCSCc1nc[nH]c1C` the value was 13.3 min; for `CCC(C(=O)O)C1CCC(C)C(C(C)C(O)C(C)C(=O)C(CC)C2OC3(C=CC(O)C4(CCC(C)(C5CCC(O)(CC)C(C)O5)O4)O3)C(C)CC2C)O1` (configuration not stated), 35.5 min. For `NC(=O)N1c2ccccc2C=Cc2ccccc21` the value was 21.9 min; for `Cc1cccc2sc3nncn3c12`, 18.9 min. For `Cc1cc(C2CC2)nc(Nc2ccccc2)n1`, the LC retention time was 29.8 min.

With `CNC(=O)Oc1cccc2c1OC(C)(C)C2`, the LC retention time was 21.4 min. For `Cc1nn(C)c(Oc2ccccc2)c1C=NOCc1ccc(C(=O)OC(C)(C)C)cc1` the value was 33.5 min; for `CNC(=O)N(C)c1nc2ccccc2s1`, 23.8 min; for `CN(C)C(=O)Nc1cc(C(C)(C)C)on1`, 21.6 min.

Take `CSc1nc(NC(C)C)nc(NC(C)C)n1`: the LC retention time is 27.6 min.

As to `CC(C)(C)NCC(O)c1cc(O)cc(O)c1` (configuration not stated), the LC retention time is 8.97 min. The result for `CC12C=CC(=O)C=C1CCC1C2C(O)CC2(C)C1CCC2(O)C(=O)CO` (configuration not stated) reads 22.2 min. For `CCC1CCCC(OC2CCC(N(C)C)C(C)O2)C(C)C(=O)C2=CC3C(C=C(C)C4CC(OC5OC(C)C(OC)C(OC)C5OC)CC43)C2CC(=O)O1` (configuration not stated) the value was 34.9 min; for `CCNc1nc(NC(C)C)nc(SC)n1`, 25.9 min; for `C#CC1(OC(C)=O)CCC2C3CCC4=CC(=NO)CCC4C3CCC21CC` (configuration not stated), 30.3 min. The result for `COC(=O)NN=Cc1c[n+]([O-])c2ccccc2[n+]1[O-]` reads 15 min; that for `Cc1ccc(NC(=O)NC(C)(C)c2ccccc2)cc1`, 26.7 min; that for `CC(C)NCC(O)COc1cccc2ccccc12` (configuration not stated), 21.8 min. For the compound `CC(C)NCC(O)COc1cccc2[nH]c3ccccc3c12` (configuration not stated), the LC retention time is 20 min. For `CN(C)CCCN1c2ccccc2CCc2ccccc21` the value was 26 min; for `COCCOc1ccccc1S(=O)(=O)NC(=O)Nc1nc(OC)nc(OC)n1`, 15.5 min; for `COC(=O)c1ccccc1S(=O)(=O)NC(=O)N(C)c1nc(C)nc(OC)n1`, 16.9 min. The result for `[2H]c1c([2H])c([2H])c2[nH]c(NC(=O)OC)nc2c1[2H]` reads 17.1 min; that for `CCC1OC(=O)C(C)C(OC2CC(C)(OC)C(O)C(C)O2)C(C)C(OC2OC(C)CC(N(C)C)C2O)C(C)(OC)CC(C)C(=O)C(C)C(O)C1(C)O` (configuration not stated), 27.2 min; that for `CN=C(NC#N)NCCSCc1nc[nH]c1C`, 13.3 min. For `[2H]C([2H])([2H])N(C(=O)Oc1nc(N(C)C)nc(C)c1C)C([2H])([2H])[2H]` the value was 22.8 min; for `CSC1=NC(C)(c2ccccc2)C(=O)N1Nc1ccccc1` (configuration not stated), 26.3 min.

For `Cc1ccc(C(=O)C(C)CN2CCCCC2)cc1` (configuration not stated), the LC retention time was 23.4 min. For `[2H]C([2H])([2H])OP(N)(=O)SC([2H])([2H])[2H]` (configuration not stated) the value was 4.22 min; for `Cc1cc(=O)n(-c2ccccc2)n1C`, 15.4 min. The result for `CCOc1nc(NC)nc(NC(=O)NS(=O)(=O)c2ccccc2C(=O)OC)n1` reads 17.7 min; that for `CC(Oc1ccc2ccccc2c1)C(=O)Nc1ccccc1` (configuration not stated), 28.8 min; that for `CCCC(=NOCC)C1=C(O)CC(CC(C)SCC)CC1=O` (configuration not stated), 25.6 min. For `COP(=O)(OC)Oc1ccc(S(C)=O)c(C)c1` (configuration not stated) the value was 16.9 min; for `[2H]c1c([2H])c(S(=O)(=O)Nc2cc(C)on2)c([2H])c([2H])c1N`, 9.83 min; for `COc1cc(OC)nc(NC(=O)NS(=O)(=O)c2cc(NC=O)ccc2C(=O)N(C)C)n1`, 15.9 min. With `COc1cc(OC)nc(NC(=O)NS(=O)(=O)Nc2ccccc2C(=O)C2CC2)n1`, the LC retention time was 23.6 min. The result for `Cc1ccnc(NS(=O)(=O)c2ccc(N)cc2)n1` reads 11.6 min; that for `CNC(=O)N(C)c1nnc(C(C)(C)C)s1`, 21.7 min.

With `CC(C)NCC(O)COc1ccc(CCOCC2CC2)cc1` (configuration not stated), the LC retention time is 21.6 min. Consider `CNC(=O)C(=NOC)c1ccccc1Oc1ccccc1`, for which the LC retention time is 24.6 min. On to `Cc1nnc(NS(=O)(=O)c2ccc(N)cc2)s1`, for which the LC retention time is 9.03 min. Regarding `CCC(C)c1ccccc1OC(=O)NC` (configuration not stated), the LC retention time was 25.2 min. `CC(=O)CC(c1ccccc1)c1c(O)c2ccccc2oc1=O` (configuration not stated): the LC retention time is 19.1 min. As to `OC(CCCN1CCCCC1)(c1ccccc1)c1ccccc1`, the LC retention time is 23.2 min. The result for `COC(=O)c1ccccc1CS(=O)(=O)NC(=O)Nc1nc(OC)cc(OC)n1` reads 22.1 min; that for `Nc1ccc(S(=O)(=O)Nc2nccs2)cc1`, 10.6 min; that for `COC(=O)c1ccccc1S(=O)(=O)NC(=O)Nc1nc(C)nc(OC)n1`, 13.9 min. For `CC1=CC(O)CC(=O)Cc2nc(co2)C(=O)N2CCC=C2C(=O)OC(C(C)C)C(C)C=CC(=O)NCC=C1` (configuration not stated) the value was 24.4 min. For `COc1ccc2c(c1)C13CCCCC1C(C2)N(C)CC3` (configuration not stated) the value was 24.2 min; for `CCOC(=O)c1cnn(C)c1S(=O)(=O)NC(=O)Nc1nc(OC)cc(OC)n1`, 18.2 min. For the compound `CCCCOC(=O)N(C)SN(C)C(=O)Oc1cccc2c1OC(C)(C)C2`, the LC retention time was 31.5 min. Consider `Oc1ccc2nc(-c3cscn3)[nH]c2c1`, for which the LC retention time was 16.1 min.

`CC(C)(C)NCC(O)c1ccc(O)c(CO)c1` (configuration not stated): the LC retention time was 9.3 min. For the compound `COC(=O)c1ccc(CNS(C)(=O)=O)cc1S(=O)(=O)NC(=O)Nc1nc(OC)cc(OC)n1`, the LC retention time was 17.4 min. For `COc1cc(OC)nc(NC(=O)NS(=O)(=O)c2c(-c3nnn(C)n3)cnn2C)n1` the value was 14.7 min; for `COc1cc(NS(=O)(=O)c2ccc(N)cc2)nc(OC)n1`, 15.5 min. The result for `Cc1nc(N(C)C)nc(OC(=O)N(C)C)c1C` reads 23.4 min. Consider `[2H]C([2H])([2H])NC(=O)ON=C(C)SC`, for which the LC retention time was 11.9 min. Consider `CNC(=C[N+](=O)[O-])NCCSCc1ccc(CN(C)C)o1`, for which the LC retention time was 12.5 min.

Take `CC(C)NCC(O)COc1ccc(COCCOC(C)C)cc1` (configuration not stated): the LC retention time was 20 min. On to `CCCCc1c(C)nc(N(C)C)[nH]c1=O`, for which the LC retention time was 23.4 min. For `[2H]C([2H])([2H])Oc1cc(NS(=O)(=O)c2ccc(N)cc2)nc(OC([2H])([2H])[2H])n1` the value was 15.1 min; for `CCOc1ccc(NC(C)=O)cc1`, 18.5 min; for `CSc1nnc(C(C)(C)C)c(=O)n1N`, 20.6 min. As for `CN1C2CC(OC(=O)C(CO)c3ccccc3)CC1C1OC12` (configuration not stated), the LC retention time is 16.4 min. For `CC1CCCCC1NC(=O)Nc1ccccc1` (configuration not stated) the value was 25.6 min.
